Assay results as given in ChEMBL document CHEMBL2163222 (J Med Chem, 2012).
pIC50: −log10 of the molar value. Calls of active or inactive are those of the source. The rule behind the calls is not given here.

Columns and labels:
[1] = species: Mus musculus; experiment: Toxicity in mouse assessed as drug tolerance; assay type: organism-based; conditions: in vivo
[2] = test system: SF-539; experiment: Growth inhibition of human SF539 cells at 10 uM by NCI-60 cell inhibition assay; assay type: functional; conditions: read-out: GI
[3] = test system: CAKI-1; experiment: Growth inhibition of human Caki1 cells at 10 uM by NCI-60 cell inhibition assay; assay type: functional; conditions: read-out: GI
[4] = test system: OVCAR-5; experiment: Growth inhibition of human OVCAR5 cells at 10 uM by NCI-60 cell inhibition assay; assay type: functional; conditions: read-out: GI
[5] = test system: U-251; experiment: Growth inhibition of human U251 cells at 10 uM by NCI-60 cell inhibition assay; assay type: functional; conditions: read-out: GI
[6] = test system: SW-620; experiment: Growth inhibition of human SW620 cells at 10 uM by NCI-60 cell inhibition assay; assay type: functional; conditions: read-out: GI
[7] = test system: UACC-62; experiment: Growth inhibition of human UACC62 cells at 10 uM by NCI-60 cell inhibition assay; assay type: functional; conditions: read-out: GI
[8] = test system: SK-MEL-28; experiment: Growth inhibition of human SK-MEL-28 cells at 10 uM by NCI-60 cell inhibition assay; assay type: functional; conditions: read-out: GI
[9] = cells; conditions: Homo sapiens, U373 MG, 72 h
[10] = test system: HCC 2998; experiment: Growth inhibition of human HCC2998 cells at 10 uM by NCI-60 cell inhibition assay; assay type: functional; conditions: read-out: GI
[11] = test system: ACHN; experiment: Growth inhibition of human ACHN cells at 10 uM by NCI-60 cell inhibition assay; assay type: functional; conditions: read-out: GI
[12] = test system: OE33; experiment: Growth inhibition of human OE33 cells after 3 days by MTT assay; assay type: functional, cell-based; conditions: OE33, 72 h
[13] = test system: NCI-H23; experiment: Growth inhibition of human NCI-H23 cells at 10 uM by NCI-60 cell inhibition assay; assay type: functional; conditions: read-out: GI
[14] = test system: MCF7; experiment: Growth inhibition of human MCF7 cells at 10 uM by NCI-60 cell inhibition assay; assay type: functional; conditions: read-out: GI
[15] = molecular target: Dual specificity tyrosine-phosphorylation-regulated kinase 1A (Homo sapiens, UniProt Q13627); experiment: Inhibition of DYRK1A kinase using RBER-CHKtide substrate by radiometric protein kinase assay
[16] = test system: TK-10; experiment: Growth inhibition of human TK10 cells at 10 uM by NCI-60 cell inhibition assay; assay type: functional; conditions: read-out: GI
[17] = test system: U-373MG ATCC; experiment: Inhibition of eIF2 activity in human U373 cells at 0.5 uM after 4 hrs by Western blotting method; assay type: functional, cell-based
[18] = test system: COLO 205; experiment: Growth inhibition of human COLO205 cells at 10 uM by NCI-60 cell inhibition assay; assay type: functional; conditions: read-out: GI
[19] = test system: CCRF-CEM; experiment: Growth inhibition of human CCRF-CEM cells at 10 uM by NCI-60 cell inhibition assay; assay type: functional; conditions: read-out: GI
[20] = test system: MDA-MB-435; experiment: Growth inhibition of human MDA-MB-435 cells at 10 uM by NCI-60 cell inhibition assay; assay type: functional; conditions: read-out: GI
[21] = Inhibition of eIF2 protein expression in human U373 cells at 0.5 uM after 4 hrs by Western blotting method; assay type: functional, cell-based; conditions: U-373MG ATCC

SMILES	Activity [1]	inhibition of growth at 10 µM [2] [%]	inhibition of growth at 10 µM [3] [%]	inhibition of growth at 10 µM [4] [%]	inhibition of growth at 10 µM [5] [%]	inhibition of growth at 10 µM [6] [%]	inhibition of growth at 10 µM [7] [%]	inhibition of growth at 10 µM [8] [%]	pIC50 [9]	inhibition of growth at 10 µM [10] [%]	inhibition of growth at 10 µM [11] [%]	pIC50 [12]	inhibition of growth at 10 µM [13] [%]	inhibition of growth at 10 µM [14] [%]	inhibition of growth at 10 µM [16] [%]	inhibition [17]	inhibition of growth at 10 µM [18] [%]	inhibition of growth at 10 µM [19] [%]	inhibition of growth at 10 µM [20] [%]	inhibition [21]	other results
Cc1c2c(cc[n+]1Cc1ccccc1)c1ccc(OCC3CCCCC3)cc1n2CC1CCCCC1.[Br-]	Toxic	-85.2	-92.5	-95.5	-92.5	-96.6	-94	-95.8	6.43	-93.2	-100	6.43	-76.7	-92.3	-93.6	inactive	-95.2	-36.2	-84.9	inactive	pIC50 [15]: 4.37
Cc1c2c(cc[n+]1Cc1ccccc1)c1ccc(OCc3ccccc3)cc1n2Cc1ccccc1.[Br-]	Toxic	-5.52	-5.76	13.5	-80.2	-88.1	-87.1	-56.5	6.36	-81.8	8.54	6.15	-12.2	-23.1	11.8	Active	-82.3	-16.2	-93.8	Active	
